Reference: BindingDB's records for doi:10.1016/j.chembiol.2007.10.010 (University of Munich, 2007)

Biological target: T1, 3-phosphoinositide-dependent protein kinase 1 (Homo sapiens, UniProt O15530)
T1 sequence (O15530 whole entry): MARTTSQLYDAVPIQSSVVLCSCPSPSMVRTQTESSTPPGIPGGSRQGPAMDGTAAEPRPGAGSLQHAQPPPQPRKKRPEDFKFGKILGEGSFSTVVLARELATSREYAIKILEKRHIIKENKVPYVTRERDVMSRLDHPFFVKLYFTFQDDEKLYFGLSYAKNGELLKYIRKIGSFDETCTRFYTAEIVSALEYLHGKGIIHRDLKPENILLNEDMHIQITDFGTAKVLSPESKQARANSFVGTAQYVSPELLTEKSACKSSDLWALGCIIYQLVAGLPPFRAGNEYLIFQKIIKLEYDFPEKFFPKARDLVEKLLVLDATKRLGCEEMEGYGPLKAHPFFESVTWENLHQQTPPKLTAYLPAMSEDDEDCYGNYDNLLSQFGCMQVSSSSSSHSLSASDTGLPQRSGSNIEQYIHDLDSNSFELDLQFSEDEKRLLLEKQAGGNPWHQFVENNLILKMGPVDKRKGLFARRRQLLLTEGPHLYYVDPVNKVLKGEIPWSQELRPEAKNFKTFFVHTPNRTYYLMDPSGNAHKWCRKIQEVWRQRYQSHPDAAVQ
Assay: In Vitro Kinase Assay
Details: pH 7.5; 30 °C
Text: PDK1 protein kinase was expressed in Sf9 insect cells as human recombinant GST-fusion protein by means of the baculovirus expression systems. Protein kinase assay (33PanQinase assay) was used for measuring the kinase activity of PDK1.

IC50 [µM]	Structure (SMILES)
> 100	O=Nc1c(C2C(=O)Nc3ccc(Br)cc32)[nH]c2ccccc12 (configuration not stated) [5BIO]
> 100	O=Nc1c(C2C(=O)Nc3ccccc32)[nH]c2ccccc12 (configuration not stated) [Indirubin-3 -monoxime]
